PubChem BioAssay AID248 (DTP/NCI, 2004)
“And” between values parts separate entries of the source, which are not always exact repeats. Equal values may be shown once. Inconclusive results and toxic doses are left out. Rule as the data show it: active = T/C of 150% or more; inactive = T/C below 125%.

System: L1210 leukemia ip in BDF1 mice, survival T/C
Experiment: NCI In Vivo Anticancer Drug Screen. Data for tumor model L1210 Leukemia (intraperitoneal) in B6D2F1 (BDF1) mice
Conditions: endpoint: mean survival time, higher = longer survival
How it was run: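 Ratio derived from survival: compound-dosed mice over vehicle-dosed mice, all bearing a transplantable tumor.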

[1] = dose: 100.0 mg/kg/injection, schedule: Q01DX001 (ip), vehicle: saline
[2] = dose: 200.0 mg/kg/injection, schedule: Q01DX001 (ip), vehicle: saline
[3] = dose: 400.0 mg/kg/injection, schedule: Q01DX001 (ip), vehicle: saline
[4] = dose: 100.0 mg/kg/injection, schedule: Q01DX009 (ip), vehicle: Klucel (hydroxypropylcellulose) (HPC)
[5] = dose: 200.0 mg/kg/injection, schedule: Q01DX009 (ip), vehicle: Klucel (hydroxypropylcellulose) (HPC)
[6] = dose: 100.0 mg/kg/injection, schedule: Q01DX009 (ip), vehicle: water
[7] = dose: 100.0 mg/kg/injection, schedule: Q04DX003 (ip), vehicle: water
[8] = dose: 200.0 mg/kg/injection, schedule: Q01DX009 (ip), vehicle: water
[9] = dose: 200.0 mg/kg/injection, schedule: Q04DX003 (ip), vehicle: water
[10] = dose: 400.0 mg/kg/injection, schedule: Q04DX003 (ip), vehicle: water

Measured: T/C

CCOC(=O)c1[nH]nc(CC)c1O
inactive: dose: 50.0 mg/kg/injection, schedule: Q04DX003 (ip), vehicle: gum acacia 110 % of control | dose: 100.0 mg/kg/injection, schedule: Q01DX009 (ip), vehicle: gum acacia 96 % of control | dose: 100.0 mg/kg/injection, schedule: Q04DX003 (ip), vehicle: gum acacia 98 % of control | dose: 200.0 mg/kg/injection, schedule: Q01DX009 (ip), vehicle: gum acacia 92 % of control | dose: 200.0 mg/kg/injection, schedule: Q04DX003 (ip), vehicle: gum acacia 103 % of control | dose: 400.0 mg/kg/injection, schedule: Q01DX009 (ip), vehicle: gum acacia 105 % of control | dose: 400.0 mg/kg/injection, schedule: Q04DX003 (ip), vehicle: gum acacia 108 % of control

CC1CCCC1Sc1ccccc1 (stereo unspecified)
inactive: [1] 91 % of control | dose: 100.0 mg/kg/injection, schedule: Q01DX009 (ip), vehicle: acetone 99 % of control | [2] 91 % of control | dose: 200.0 mg/kg/injection, schedule: Q01DX009 (ip), vehicle: acetone 106 % of control | [3] 93 % of control | dose: 400.0 mg/kg/injection, schedule: Q01DX009 (ip), vehicle: acetone 92 % of control

OC/C(=C/c1ccccc1)c1ccccc1
inactive: dose: 50.0 mg/kg/injection, schedule: Q01DX009 (ip), vehicle: Klucel (hydroxypropylcellulose) (HPC) 98 % of control | dose: 75.0 mg/kg/injection, schedule: Q04DX003 (ip), vehicle: Klucel (hydroxypropylcellulose) (HPC) 100 % of control | [4] 91 % of control | dose: 150.0 mg/kg/injection, schedule: Q04DX003 (ip), vehicle: Klucel (hydroxypropylcellulose) (HPC) 98 % of control | [5] 93 % of control | dose: 300.0 mg/kg/injection, schedule: Q04DX003 (ip), vehicle: Klucel (hydroxypropylcellulose) (HPC) 96 % of control

CC(C)c1cccc(C(C)C)c1OC(=O)Nc1ccccc1
inactive: dose: 100.0 mg/kg/injection, schedule: Q01DX001 (ip), vehicle: Klucel (hydroxypropylcellulose) (HPC) 101 % of control | [4] 97 % of control | dose: 100.0 mg/kg/injection, schedule: Q04DX002 (ip), vehicle: Klucel (hydroxypropylcellulose) (HPC) 95 % of control and 102 % of control | dose: 100.0 mg/kg/injection, schedule: Q04DX003 (ip), vehicle: Klucel (hydroxypropylcellulose) (HPC) 116 % of control | dose: 200.0 mg/kg/injection, schedule: Q01DX001 (ip), vehicle: Klucel (hydroxypropylcellulose) (HPC) 88 % of control | [5] 98 % of control and 87 % of control | dose: 200.0 mg/kg/injection, schedule: Q04DX002 (ip), vehicle: Klucel (hydroxypropylcellulose) (HPC) 97 % of control and 108 % of control | dose: 200.0 mg/kg/injection, schedule: Q04DX003 (ip), vehicle: Klucel (hydroxypropylcellulose) (HPC) 100 % of control | dose: 400.0 mg/kg/injection, schedule: Q01DX001 (ip), vehicle: Klucel (hydroxypropylcellulose) (HPC) 87 % of control | dose: 400.0 mg/kg/injection, schedule: Q01DX009 (ip), vehicle: Klucel (hydroxypropylcellulose) (HPC) 103 % of control and 113 % of control | dose: 400.0 mg/kg/injection, schedule: Q04DX002 (ip), vehicle: Klucel (hydroxypropylcellulose) (HPC) 102 % of control and 90 % of control | dose: 400.0 mg/kg/injection, schedule: Q04DX003 (ip), vehicle: Klucel (hydroxypropylcellulose) (HPC) 108 % of control

N#CCCOCC[CH2][Sn]([c]1ccccc1)([c]1ccccc1)[c]1ccccc1
inactive: dose: 100.0 mg/kg/injection, schedule: Q04DX002 (ip), vehicle: saline with Tween-80 94 % of control | dose: 200.0 mg/kg/injection, schedule: Q04DX002 (ip), vehicle: saline with Tween-80 94 % of control | dose: 400.0 mg/kg/injection, schedule: Q04DX002 (ip), vehicle: saline with Tween-80 91 % of control

CC(C)CCCC(C)C1CCC2C3CC=C4CC(O)CCC4(C)C3CCC12C (stereo unspecified) (tested in a mixture with another compound)
inactive: dose: 50.0 mg/kg/injection, schedule: Q01DX009 (ip), vehicle: water 94 % of control | dose: 100.0 mg/kg/injection, schedule: Q01DX001 (ip), vehicle: water 102 % of control and 108 % of control | [6] 102 % of control | [7] 90 % of control | dose: 200.0 mg/kg/injection, schedule: Q01DX001 (ip), vehicle: water 105 % of control | [8] 103 % of control | [9] 88 % of control | dose: 400.0 mg/kg/injection, schedule: Q01DX001 (ip), vehicle: water 105 % of control | [10] 87 % of control

O=C(NCCCl)NC(C1CC1)C1CC1
inactive: dose: 100.0 mg/kg/injection, schedule: Q01DX009 (ip), vehicle: saline with Tween-80 94 % of control | dose: 200.0 mg/kg/injection, schedule: Q01DX009 (ip), vehicle: saline with Tween-80 94 % of control

CCOP(=O)(OCC)C1=C(P(=O)(OCC)OCC)C(F)(F)C(F)(F)C1(F)F
inactive: dose: 9.5 mg/kg/injection, schedule: Q01DX001 (ip), vehicle: other 100 % of control | dose: 19.0 mg/kg/injection, schedule: Q01DX001 (ip), vehicle: other 100 % of control | dose: 38.0 mg/kg/injection, schedule: Q01DX001 (ip), vehicle: other 97 % of control

CCC1(NS(=O)(=O)c2ccc(N)cc2)C(=O)N(C)C(=O)N(C)C1=O
inactive: [1] 94 % of control | [2] 94 % of control | [3] 91 % of control

CC1C[N+](C)=C2CCCCC2=C1N (stereo unspecified)
inactive: dose: 6.25 mg/kg/injection, schedule: Q01DX009 (ip), vehicle: saline 105 % of control | dose: 6.25 mg/kg/injection, schedule: Q04DX003 (ip), vehicle: saline 96 % of control | dose: 12.5 mg/kg/injection, schedule: Q01DX009 (ip), vehicle: saline 98 % of control | dose: 12.5 mg/kg/injection, schedule: Q04DX003 (ip), vehicle: saline 98 % of control | dose: 25.0 mg/kg/injection, schedule: Q01DX009 (ip), vehicle: saline 102 % of control | dose: 25.0 mg/kg/injection, schedule: Q04DX003 (ip), vehicle: saline 108 % of control

c1ccc2c(N=Nc3cccc4ccccc34)cccc2c1
inactive: dose: 100.0 mg/kg/injection, schedule: Q01DX001 (ip), vehicle: carboxymethylcellulose (CMC) 97 % of control | dose: 200.0 mg/kg/injection, schedule: Q01DX001 (ip), vehicle: carboxymethylcellulose (CMC) 97 % of control | dose: 400.0 mg/kg/injection, schedule: Q01DX001 (ip), vehicle: carboxymethylcellulose (CMC) 93 % of control

CC(=O)CCC(=O)CCC(=O)O
inactive: dose: 100.0 mg/kg/injection, schedule: Q04DX002 (ip), vehicle: saline 92 % of control | dose: 200.0 mg/kg/injection, schedule: Q04DX002 (ip), vehicle: saline 100 % of control | dose: 400.0 mg/kg/injection, schedule: Q04DX002 (ip), vehicle: saline 95 % of control

O=C(O)c1ccc(Br)s1
inactive: [1] 97 % of control | [2] 99 % of control

COC(=O)CSc1ncc2cnccn12
inactive: [6] 105 % of control | [7] 119 % of control | [8] 98 % of control | [9] 98 % of control | dose: 400.0 mg/kg/injection, schedule: Q01DX009 (ip), vehicle: water 98 % of control | [10] 104 % of control
